Test results: ChEMBL document CHEMBL3885861, “Open TG-GATES”

Organism: Rattus norvegicus
Assay: Open TG-GATES - Regimen: Single
Assay type: toxicity, organism-based, Sprague-Dawley
Parameters: regimen Single, gender Male, age 6 weeks
Details: in vivo, po, 0 mg/kg, route gavage, dose level Control; for APTT / Bas / Eos / Fbg / Hb / Ht / Lym / MCH / MCHC / MCV / Mono / Neu / PT / Plat / RBC / Ret / WBC: tissue Blood; for KIDNEY_L / KIDNEY_R / KIDNEY_TOTAL: tissue Kidney; for LIVER: tissue Liver; for A/G / ALP / ALT / AST / BUN / CRE / Ca / Cl / DBIL / GLC / IP / K / LDH / Na / PL / RALB / TBIL / TC / TG / TP / gamma-GTP: tissue Plasma

CCCCNC(=O)NS(=O)(=O)c1ccc(C)cc1 [TOLBUTAMIDE]
TERMINAL_BW (3 h): 203.9 g | APTT (3 h): 16.5 s | Bas (3 h): 0% | Eos (3 h): 0.8% | Fbg (3 h): 286.6 mg/dL | Hb (3 h): 13.7 g/dL | Ht (3 h): 42.1% | Lym (3 h): 78.2% | MCH (3 h): 21 pg | MCHC (3 h): 32.5% | MCV (3 h): 64.8 fL | Mono (3 h): 2.8% | Neu (3 h): 18% | PT (3 h): 12.9 s | Plat (3 h): 128.5 x10_4/uL | RBC (3 h): 649.4 x10_4/ul | Ret (3 h): 8.5% | WBC (3 h): 86 x10_2/uL | KIDNEY_L (3 h): 0.9 g | KIDNEY_R (3 h): 0.9 g | KIDNEY_TOTAL (3 h): 1.8 g | LIVER (3 h): 9.1 g | A/G (3 h): 0.9 | ALP (3 h): 1445.2 IU/L | ALT (3 h): 43.8 IU/L | AST (3 h): 73.6 IU/L | BUN (3 h): 9.8 mg/dL | CRE (3 h): 0.2 mg/dL | Ca (3 h): 11 mg/dL | Cl (3 h): 106.8 meq/L | DBIL (3 h): 0.006 mg/dL | GLC (3 h): 175 mg/dL | IP (3 h): 8.9 mg/dL | K (3 h): 4.1 meq/L | LDH (3 h): 52.4 IU/L | Na (3 h): 141.6 meq/L | PL (3 h): 145 mg/dL | RALB (3 h): 2.5 g/dL | TBIL (3 h): 0.078 mg/dL | TC (3 h): 80.8 mg/dL | TG (3 h): 54.6 mg/dL | TP (3 h): 5.3 g/dL | gamma-GTP (3 h): 1 IU/L | TERMINAL_BW (6 h): 204 g | APTT (6 h): 18.7 s | Bas (6 h): 0.2% | Eos (6 h): 1% | Fbg (6 h): 279.6 mg/dL | Hb (6 h): 13.6 g/dL | Ht (6 h): 41.9% | Lym (6 h): 80.4% | MCH (6 h): 20.6 pg | MCHC (6 h): 32.5% | MCV (6 h): 63.6 fL | Mono (6 h): 2% | Neu (6 h): 15.8% | PT (6 h): 13.1 s | Plat (6 h): 131.1 x10_4/uL | RBC (6 h): 659.4 x10_4/ul | Ret (6 h): 8.1% | WBC (6 h): 84.4 x10_2/uL | KIDNEY_L (6 h): 0.9 g | KIDNEY_R (6 h): 0.9 g | KIDNEY_TOTAL (6 h): 1.9 g | LIVER (6 h): 8.8 g | A/G (6 h): 0.9 | ALP (6 h): 1197.4 IU/L | ALT (6 h): 36.6 IU/L | AST (6 h): 66.4 IU/L | BUN (6 h): 8.4 mg/dL | CRE (6 h): 0.2 mg/dL | Ca (6 h): 10.7 mg/dL | Cl (6 h): 105.6 meq/L | DBIL (6 h): 0.01 mg/dL | GLC (6 h): 172.6 mg/dL | IP (6 h): 9.5 mg/dL | K (6 h): 4.1 meq/L | LDH (6 h): 49 IU/L | Na (6 h): 141.2 meq/L | PL (6 h): 138.4 mg/dL | RALB (6 h): 2.5 g/dL | TBIL (6 h): 0.078 mg/dL | TC (6 h): 78.8 mg/dL | TG (6 h): 46.6 mg/dL | TP (6 h): 5.2 g/dL | gamma-GTP (6 h): 1 IU/L | TERMINAL_BW (9 h): 202.2 g | APTT (9 h): 15.8 s | Bas (9 h): 0.2% | Eos (9 h): 1.2% | Fbg (9 h): 284 mg/dL | Hb (9 h): 13.3 g/dL | Ht (9 h): 40.1% | Lym (9 h): 75.6% | MCH (9 h): 21 pg | MCHC (9 h): 33% | MCV (9 h): 63.6 fL | Mono (9 h): 2% | Neu (9 h): 20.8% | PT (9 h): 13.3 s | Plat (9 h): 121 x10_4/uL | RBC (9 h): 633 x10_4/ul | Ret (9 h): 8.3% | WBC (9 h): 72.5 x10_2/uL | KIDNEY_L (9 h): 0.9 g | KIDNEY_R (9 h): 1 g | KIDNEY_TOTAL (9 h): 1.9 g | LIVER (9 h): 7.9 g | A/G (9 h): 0.9 | ALP (9 h): 1161.6 IU/L | ALT (9 h): 38.6 IU/L | AST (9 h): 73.8 IU/L | BUN (9 h): 7.6 mg/dL | CRE (9 h): 0.1 mg/dL | Ca (9 h): 10.7 mg/dL | Cl (9 h): 106.2 meq/L | DBIL (9 h): 0 mg/dL | GLC (9 h): 166.8 mg/dL | IP (9 h): 9.4 mg/dL | K (9 h): 4.3 meq/L | LDH (9 h): 60.8 IU/L | Na (9 h): 141 meq/L | PL (9 h): 132.8 mg/dL | RALB (9 h): 2.5 g/dL | TBIL (9 h): 0.078 mg/dL | TC (9 h): 78.4 mg/dL | TG (9 h): 33.2 mg/dL | TP (9 h): 5.2 g/dL | gamma-GTP (9 h): 1 IU/L | TERMINAL_BW (24 h): 220 g | APTT (24 h): 17.4 s | Bas (24 h): 0.2% | Eos (24 h): 1.2% | Fbg (24 h): 296 mg/dL | Hb (24 h): 13.3 g/dL | Ht (24 h): 40.5% | Lym (24 h): 74.2% | MCH (24 h): 21.3 pg | MCHC (24 h): 32.9% | MCV (24 h): 64.9 fL | Mono (24 h): 3% | Neu (24 h): 20.4% | PT (24 h): 12.9 s | Plat (24 h): 123.6 x10_4/uL | RBC (24 h): 624.8 x10_4/ul | Ret (24 h): 7.7% | WBC (24 h): 89 x10_2/uL | KIDNEY_L (24 h): 1 g | KIDNEY_R (24 h): 1 g | KIDNEY_TOTAL (24 h): 2 g | LIVER (24 h): 10.3 g | A/G (24 h): 0.9 | ALP (24 h): 1544.6 IU/L | ALT (24 h): 44.6 IU/L | AST (24 h): 67 IU/L | BUN (24 h): 15.2 mg/dL | CRE (24 h): 0.2 mg/dL | Ca (24 h): 11.2 mg/dL | Cl (24 h): 104.8 meq/L | DBIL (24 h): 0.01 mg/dL | GLC (24 h): 171.2 mg/dL | IP (24 h): 8.3 mg/dL | K (24 h): 4 meq/L | LDH (24 h): 78 IU/L | Na (24 h): 141.6 meq/L | PL (24 h): 162.4 mg/dL | RALB (24 h): 2.6 g/dL | TBIL (24 h): 0.066 mg/dL | TC (24 h): 89.8 mg/dL | TG (24 h): 85.4 mg/dL | TP (24 h): 5.6 g/dL | gamma-GTP (24 h): 1.2 IU/L
